These results are taken from ChEMBL document CHEMBL4330120, “Identification of selective and reversible LSD1 inhibitors with anti-metastasis activity by high-throughput docking” (Bioorg Med Chem Lett, 2019).

Data set [1] in a line: in vitro. The note with it: human, SW620 cells.
Description: Cytotoxicity against human SW620 cells assessed as inhibition of cell proliferation at 100 uM after 4 hrs by MTT assay relative to control
Data set [2] in a line: in vitro. Conditions: human, HCT8 cells.
Description: Cytotoxicity against human HCT8 cells assessed as inhibition of cell proliferation at 100 uM after 4 hrs by MTT assay relative to control
Data set [3] addresses T1, Amine oxidase [flavin-containing] A (Homo sapiens, UniProt P21397).
T1 sequence (P21397 whole entry): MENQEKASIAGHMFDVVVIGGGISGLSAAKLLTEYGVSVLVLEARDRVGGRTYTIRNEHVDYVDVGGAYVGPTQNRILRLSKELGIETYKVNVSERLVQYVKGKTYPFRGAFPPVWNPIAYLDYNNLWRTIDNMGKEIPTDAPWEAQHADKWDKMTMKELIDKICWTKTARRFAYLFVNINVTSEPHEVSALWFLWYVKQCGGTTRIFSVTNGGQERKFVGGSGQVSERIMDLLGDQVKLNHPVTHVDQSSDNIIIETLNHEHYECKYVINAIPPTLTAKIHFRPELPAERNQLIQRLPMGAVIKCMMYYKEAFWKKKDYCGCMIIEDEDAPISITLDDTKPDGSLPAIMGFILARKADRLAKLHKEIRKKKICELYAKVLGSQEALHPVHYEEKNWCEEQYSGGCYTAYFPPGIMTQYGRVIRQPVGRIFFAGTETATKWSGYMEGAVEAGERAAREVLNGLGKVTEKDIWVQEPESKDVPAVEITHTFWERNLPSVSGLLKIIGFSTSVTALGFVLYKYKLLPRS
Nature of the data set: biochemical.
Description: Inhibition of recombinant human MAOA expressed in baculovirus infected BTI insect cells using beetle luciferin as substrate after 1 hr by MAO-Glo assay

In data set [4] the target is T2, Amine oxidase [flavin-containing] B (Homo sapiens, UniProt P27338).
T2 sequence (P27338 whole entry): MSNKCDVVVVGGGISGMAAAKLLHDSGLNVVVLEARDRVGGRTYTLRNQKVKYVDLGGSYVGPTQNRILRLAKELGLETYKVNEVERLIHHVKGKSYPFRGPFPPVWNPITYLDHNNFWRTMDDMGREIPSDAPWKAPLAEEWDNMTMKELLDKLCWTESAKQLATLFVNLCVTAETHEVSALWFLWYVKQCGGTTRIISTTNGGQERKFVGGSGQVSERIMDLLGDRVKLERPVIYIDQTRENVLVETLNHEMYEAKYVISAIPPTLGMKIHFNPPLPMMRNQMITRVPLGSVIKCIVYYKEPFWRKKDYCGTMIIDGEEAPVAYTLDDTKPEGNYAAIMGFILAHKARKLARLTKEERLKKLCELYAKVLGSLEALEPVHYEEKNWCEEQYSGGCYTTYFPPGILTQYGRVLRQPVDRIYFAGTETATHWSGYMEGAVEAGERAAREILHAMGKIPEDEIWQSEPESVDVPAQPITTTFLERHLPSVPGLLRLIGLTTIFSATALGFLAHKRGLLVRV
Put plainly: biochemical.
Description: Inhibition of recombinant human MAOB expressed in baculovirus infected BTI insect cells using beetle luciferin as substrate after 1 hr by MAO-Glo assay

In data set [5] the target is Lysine-specific histone demethylase 1A (Homo sapiens, UniProt O60341).
Description: Inhibition of human N-terminal GST-tagged LSD1 isoform2 (158 to end residues) expressed in Escherichia coli using methylated peptide as substrate preincubated with substrate for 15 mins followed by enzyme addition and measured after 30 mins by amplex red and horseradish peroxidase based fluorescence assay

In the case of `O=C(CCC1NC(=O)NC1=O)NCCc1c[nH]c2ccccc12` (stereo not given), the inhibition at 4 h, 100 µM in “in vitro [1]” and in “in vitro [2]” was 35% each time. Also, the IC50 in data set [3] and in data set [4] was over 200 µM throughout.
In data set [5], `Cc1nc(-c2ccc(CN(C)Cc3cccc4cnccc34)cc2)[nH]c(=O)c1F` displayed an IC50 of over 100 µM.
